Data from patent publication US20050250819A1 (priority 2004, published 2005).

System: Type III protein secretion of the chimeric SopE‘-’Bla polypeptide (SPI1 type III protein secretion system)
Assay: Primary assay: Type III protein secretion of the chimeric SopE'-'Bla polypeptide by Salmonella enterica
Assay type: cell-based
Conditions: read-out: SopE IC50(μM)
Excerpt: Primary assay: Type III protein secretion of the chimeric SopE‘-’Bla polypeptide by Salmonella enterica. This procedure is a cell-based assay that measures the type III-dependent secretion by Salmonella enterica of a plasmid-encoded chimeric polypeptide whose synthesis can be regulated, and which is endowed with an enzymatic activity that can be monitored colorimetrically by hydrolysis of a substrate that is unable to penetrate into the bacterial cytoplasm within the time constraints of the reaction. Thus, the colormetric reaction is not influenced by SopE‘-’Bla polypeptide in the bacterial cytplasm. Instead, it effectively measures the amount of polypeptide that has been secreted from the S. enterica cytoplasm to the extracellular medium via type III system protein secretion.
The SopE‘-’Bla recombinant polypeptide consists of two functionally distinct domains spliced together. The N-terminus domain is encoded by a polynucleotide region specifying the signal for type III secretion of the SopE polypeptide of S. enterica, an effector of the SPI1 type III protein secretion system. The C-terminus domain of SopE‘-’Bla consists of a 263 amino acid peptide sequence that corresponds to the TEM-1 β-lactamase expressed by plasmid pBR322 but without its N-terminal signal sequence. The TEM-1 β-lactamase part of the SopE‘-’Bla chimeric polypeptide is used as a reporter enzyme. It is capable of hydrolyzing nitrocefin resulting in a product whose accumulation can be monitored by colorimetric detection. The secretion of the SopE‘-’Bla chimeric polypeptide from the cytoplasm to the extracellular medium is dependent on type III protein secretion.
For this procedure, cells grown under conditions known to favor a functional SPI1 secretion system are induced for expression of the SopE‘-’Bla protein and grown either in the presence or in the absence of putative inhibitors for determined time. Nitrocefin is then added to the various cultures and its hydrolysis are used for quantitation. An inhibitor of Type III protein secretion is generally a compound that reduces the signal of the enzymatic reaction by decreasing the amount of SopE‘-’Bla secreted into the extracellular medium.

O=C(N[C@H](COCc1ccccc1)C(=O)O)/C(=C\c1ccc(Cl)c(Cl)c1)NC(=O)C1CCN(c2nccc(C(F)(F)F)n2)CC1 [Compound 73, (R)-3-Benzyloxy-2-(3-(3,4-dichlorophenyl)-2-{[1-(4-trifluoromethylpyrimidin-2-yl)-piperidine-4-carbonyl]amino}acryloylamino)propionic acid]
IC50: 12.8 µM

O=C(N[C@@H](CSCc1ccccc1)C(=O)O)C(=Cc1ccc2ccccc2c1)NC(=O)c1ccc(I)cc1 [Compound 46, (R)-3-Benzylsulfanyl-2-[2-(4-iodobenzoylamino)-3-naphthalen-2-yl-acryloylamino]propionic acid]
IC50: 28.6 µM

Cc1ccc(/C=C(/NC(=O)c2ccc(-c3ccccc3)cc2)C(=O)NC(C(=O)O)C(C)(C)S)s1 (stereo not shown) [Compound 93]
IC50: 1.4 µM

O=C(N[C@@H](COCc1ccccc1)C(=O)O)C(=Cc1ccc(Oc2ccccc2)cc1)NC(=O)c1ccc(C(F)(F)F)cc1 [Compound 15, (S)-3-Benzyloxy-2-[3-(4-phenoxyphenyl)-2-(4-trifluoromethylbenzoylamino)-acryloylamino]propionic acid]
IC50: 11 µM

O=C(N[C@@H](CSCc1ccccc1)C(=O)O)/C(=C\c1ccc(Br)cc1)NC(=O)c1ccc(C(F)(F)F)cc1 [Compound 41, (R)-3-Benzylsulfanyl-2-[3-(4-bromophenyl)-2-(4-trifluoromethylbenzoylamino)-acryloylamino]propionic acid]
IC50: 48 µM

O=C(O)C(Cc1ccc(Cl)cc1)NC(=O)N(CCc1ccc(-c2ccccc2)cc1)Cc1cccc(C(F)(F)F)c1 (stereo not shown) [Compound 87, 2-[3-(2-Biphenyl-4-yl-ethyl)-3-(3-trifluoromethylbenzyl)ureido]-3-(4-chlorophenyl)propionic acid]
IC50: 1.5 µM

O=C(O)[C@H](Cc1ccc(Cl)cc1)NC(=O)N(CCc1ccc(-c2ccccc2)cc1)Cc1ccc(Cl)c(Cl)c1 (stereo in doubt) [Compound 86, 2-[3-(2-Biphenyl-4-yl-ethyl)-3-(3,4-dichlorobenzyl)ureido]-3-(4-chlorophenyl)-propionic acid]
IC50: 1.1 µM

O=C(N[C@@H](CSCc1ccccc1)C(=O)O)/C(=C\c1cccc2ccccc12)NC(=O)c1ccc(C(F)(F)F)cc1 [Compound 3, (R)-3-Benzylsulfanyl-2-[3-naphthalen-1-yl-2-(4-trifluoromethylbenzoylamino)-acryloylamino]propionic acid]
IC50: 30.3 µM

CC(C)(S)C(NC(=O)/C(=C\c1cccc(Oc2ccccc2)c1)NC(=O)c1ccc(-c2ccccc2)cc1)C(=O)O (stereo not shown) [Compound 127]
IC50: 10 µM

NC(=O)C[C@@H](NC(=O)/C(=C\c1ccc(-c2ccccc2)cc1)NC(=O)c1ccc(C(F)(F)F)cc1)C(=O)O [Compound 152]
IC50: 100 µM

O=C(NN(Cc1cccc(C(F)(F)F)c1)C(=O)NC(Cc1ccc(Cl)cc1)C(=O)O)c1ccc(-c2ccccc2)cc1 (stereo not shown) [Compound 51, 4-Biphenylcarboxylic acid-N′-[(3-trifluoromethylphenyl)methyl]-N′-[[[2-(4-chlorophenyl)-1-carboxyethyl]amino]carbonyl]hydrazide]
IC50: 8 µM

O=C(O)[C@H](COCc1ccccc1)NC(=O)N(CCc1ccc(-c2ccccc2)cc1)Cc1ccc(Cl)c(Cl)c1 [Compound 89, (S)-3-Benzyloxy-2-[3-(2-biphenyl-4-yl-ethyl)-3-(3,4-dichlorobenzyl)ureido]propionic acid]
IC50: 2.1 µM

O=C(N[C@@H](Cc1ccc(Cl)cc1)C(=O)O)/C(=C\c1cccc(C(F)(F)F)c1)NC(=O)c1cc2ccccc2o1 [Compound 69, (S)-2-[2-[(Benzofuran-2-carbonyl)amino]-3-(3-trifluoromethylphenyl)acryloylamino]-3-(4-chlorophenyl)propionic acid]
IC50: 28.5 µM

CC(C)(S)C(NC(=O)/C(=C\c1ccc(C(F)(F)F)cc1)NC(=O)c1ccc(-c2ccccc2)cc1)C(=O)O (stereo not shown) [Compound 124]
IC50: 16 µM

O=C(N[C@H](COCc1ccccc1)C(=O)O)/C(=C\c1ccc(Cl)c(Cl)c1)NC(=O)c1cc2ccccc2s1 [Compound 68, (R)-2-[2-[(Benzo[b]thiophene-2-carbonyl)amino]-3-(3,4-dichlorophenyl)-acryloylamino]-3-benzyloxypropionic acid]
IC50: 52 µM

O=C(NC1(C(=O)O)CCCCC1)/C(=C\c1ccc(Cl)c(Cl)c1)NC(=O)c1ccc(-c2ccccc2)cc1 [Compound 114]
IC50: 7.3 µM

CC(C)(S)C(NC(=O)/C(=C\c1ccc(Cl)c(Cl)c1)NC(=O)c1ccc(C(F)(F)F)cc1)C(=O)O (stereo not shown) [Compound 120]
IC50: 22.7 µM

O=C(NC(CCSCc1ccccc1)C(=O)O)/C(=C\c1ccc(Cl)cc1Cl)NC(=O)c1ccc(-c2ccccc2)cc1 (stereo not shown) [Compound 104]
IC50: 3.8 µM

O=C(N[C@H](CSCc1ccccc1)C(=O)O)/C(=C\c1ccc(Cl)c(Cl)c1)NC(=O)c1cc2ccccc2s1 [Compound 67, (S)-2-[2-[(Benzo[b]thiophene-2-carbonyl)amino]-3-(3,4-dichlorophenyl)-acryloylamino]-3-benzylsulfanylpropionic acid]
IC50: 27 µM

Cc1ccccc1/C=C(/NC(=O)c1ccc(C(F)(F)F)cc1)C(=O)N[C@@H](CSCc1ccccc1)C(=O)O [Compound 138]
IC50: 100 µM

O=C(NC(Cc1ccc(Cl)cc1)C(=O)O)/C(=C\c1ccc(Cl)c(Cl)c1)NC(=O)c1ccc(C(F)(F)F)cc1 (stereo not shown) [Compound 91]
IC50: 7.6 µM

CC(C)c1ccc(/C=C(/NC(=O)c2ccc(C(F)(F)F)cc2)C(=O)N[C@@H](COCc2ccccc2)C(=O)O)cc1 [Compound 32, (S)-3-Benzyloxy-2-[3-(4-isopropylphenyl)-2-(4-trifluoromethylbenzoylamino)-acryloylamino]propionic acid]
IC50: 34.8 µM

O=C(N[C@@H](Cc1ccc(Cl)cc1)C(=O)O)/C(=C\c1ccc(-c2ccccc2)cc1)NC(=O)c1ccc(C(F)(F)F)cc1 [Compound 25, (S)-2-[3-Biphenyl-4-yl-2-(4-trifluoromethylbenzoylamino)acryloylamino]-3-(4-chlorophenyl)propionic acid]
IC50: 6 µM

O=C(NN(Cc1ccc(-c2ccccc2)cc1)C(=O)N[C@@H](CSCc1ccccc1)C(=O)O)c1ccc(C(F)(F)F)cc1 [Compound 8, 4-Trifluoromethylbenzoic acid-N′-[(biphenyl-4-yl)methyl]-N′-[[[(2-benzylthio)-1-carboxyethyl]amino]carbonyl]hydrazide]
IC50: 10 µM

CCc1ccc(/C=C(/NC(=O)c2ccc(-c3ccccc3)cc2)C(=O)NC(C(=O)O)C(C)(C)S)cc1 (stereo not shown) [Compound 125]
IC50: 20 µM

O=C(O)[C@H](COCc1ccccc1)NC(=O)N(CCc1ccc(-c2ccccc2)cc1)Cc1cccc(C(F)(F)F)c1 [Compound 88, (S)-3-Benzyloxy-2-[3-(2-biphenyl-4-yl-ethyl)-3-(3-trifluoromethylbenzyl)ureido]propionic acid]
IC50: 4 µM

O=C(N[C@@H](Cc1ccc(Cl)cc1)C(=O)O)/C(=C\c1ccc(OC(F)(F)F)cc1)NC(=O)C1CCN(c2nccc(C(F)(F)F)n2)CC1 [Compound 85, (S)-3-(4-Chlorophenyl)-2-(3-(4-trifluoromethoxyphenyl)-2-{[1-(4-trifluoromethyl-pyrimidin-2-yl)piperidine-4-carbonyl]amino}acryloylamino)propionic acid]
IC50: 35.2 µM

Cc1ccc(C(=O)N/C(=C/c2ccc(Cl)c(Cl)c2)C(=O)NC(C(=O)O)C(C)(C)S)cc1 (stereo not shown) [Compound 161]
IC50: 56 µM

O=C(NC1(C(=O)O)CCCCC1)/C(=C\c1ccc(-c2ccccc2)cc1)NC(=O)c1ccc(C(F)(F)F)cc1 [Compound 135]
IC50: 50 µM

O=C(N[C@@H](CSCc1ccccc1)C(=O)O)/C(=C\c1ccc2ccccc2c1)NC(=O)c1ccc(Br)cc1 [Compound 45, (R)-3-Benzylsulfanyl-2-[2-(4-bromobenzoylamino)-3-naphthalen-2-yl-acryloylamino]propionic acid]
IC50: 81.6 µM

O=C(NN(Cc1ccc(Cl)c(C(F)(F)F)c1)C(=O)NC(Cc1ccc(Cl)cc1)C(=O)O)c1ccc(-c2ccccc2)cc1 (stereo not shown) [Compound 52, 4-Biphenylcarboxylic acid-N′-[(4-chloro-3-trifluoromethylphenyl)methyl]-N′-[[[2-(4-chlorophenyl)-1-carboxyethyl]amino]carbonyl]hydrazide]
IC50: 3.1 µM

CC(C)(S)C(NC(=O)/C(=C\c1ccc(-c2ccccc2)cc1)NC(=O)c1ccc(C(F)(F)F)cc1)C(=O)O (stereo not shown) [Compound 90]
IC50: 7.8 µM

O=C(NN(Cc1cccc(Oc2ccccc2)c1)C(=O)N[C@@H](CSCc1ccccc1)C(=O)O)c1ccc(C(F)(F)F)cc1 [Compound 9, 4-Trifluoromethylbenzoic acid-N′-[(3-phenoxyphenyl)methyl]-N′-[[[(2-benzylthio)-1-carboxyethyl]amino]carbonyl]hydrazide]
IC50: 15 µM

O=C(N[C@@H](CSCc1ccccc1)C(=O)O)/C(=C\c1cccc(Oc2ccccc2)c1)NC(=O)c1ccc(Cl)cc1 [Compound 43, (R)-3-Benzylsulfanyl-2-[2-(4-chlorobenzoylamino)-3-(3-phenoxyphenyl)-acryloylamino]propionic acid]
IC50: 34.2 µM
